Assays:
Experiment in all cases: Anti-proliferative assay, cell-titre luminescent reagent, 72 h (GVK-BIO)
Type in all cases: cell-based
[1] = test system: DU145 prostate cancer cells; conditions: Homo sapiens, DU-145, 72 h, 30, 3, 0.3 and 0.03 μM, linear regression (Tables 2-4)
Method: (§1) The ability of compounds 4001, 4002, 4008, 4010, 4011, 4013-4015, 4018, 4026, 4045-4113 and 4115-4127 to inhibit the proliferation of cancer cells representative of neuroblastoma, melanoma, prostate cancer, colorectal cancer, non-small cell lung carcinoma, and triple negative breast cancer was assessed. These studies were conducted by contract research (GVK-BIO). Briefly, a pre-determined number of cells as calculated from cell growth assays for each of the cell lines employed were seeded into their respective culture medium (using ATCC culture parameters—http://www.atcc.org) and cultured for 24 h at 37° C. and 5% CO2 in 96-well culture plates. Once attached, each cell line was then exposed to various concentrations of each respective analogue (30, 3, 0.3 and 0.03 μM for compounds in Tables 2, 3 and 4; 30, 10, 3, 1, 0.3 and 0.1 μM for compounds in Table 5), cultured for a further 72 h and exposed to cell-titre luminescent reagent (100 μL/well) for a further 30 min). Luminescence was captured using an EnVision multilabel reader and the data for each analogue concentration compared against no treatment control. For compounds in Tables 2-4, semi-log plots of Percent of Control versus concentration were prepared and IC50 determined using linear regression analysis. For compounds in Table 5, cell viability was normalized to control (vehicle alone) and dose-response curves, and half maximal effective concentration (EC50) values were determined using Graph Pad Prism 6 (nonlinear regression sigmoidal dose-response variable slope).

[2] = test system: MDA-MB-231 triple negative breast cancer cells; conditions: Homo sapiens, MDA-MB-231, 72 h, 30, 3, 0.3 and 0.03 μM, linear regression (Tables 2-4)
Method: as §1

[3] = test system: PC3 prostate cancer cells; conditions: 30, 3, 0.3 and 0.03 μM, linear regression (Tables 2-4)
Method: as §1

[4] = test system: CaCo2 colorectal cancer cells; conditions: Homo sapiens, Caco-2, 72 h, 30, 3, 0.3 and 0.03 μM, linear regression (Tables 2-4)
Method: as §1

SK-Mel-28 melanoma cells = conditions: Homo sapiens, SK-MEL-28, 72 h, 30, 3, 0.3 and 0.03 μM, linear regression (Tables 2-4)
Method: as §1

[5] = test system: SK-N-SH neuroblastoma cells; conditions: Homo sapiens, SK-N-SH, 30, 3, 0.3 and 0.03 μM, linear regression (Tables 2-4)
Method: as §1

[6] = test system: A549 non-small cell lung carcinoma cells; conditions: Homo sapiens, A549, 72 h, 30, 3, 0.3 and 0.03 μM, linear regression (Tables 2-4), read-out: IC50/μM Lung (NSLC) A549
Method: as §1

Row | SMILES | IC50 [1] [µM] | IC50 [2] [µM] | IC50 [3] [µM] | IC50 [4] [µM] | IC50 (SK-Mel-28 melanoma cells) [µM] | IC50 [5] [µM] | IC50 [6] [µM]
1 | Cc1c(C)n(CCCN(C)C)c2ccc(C(=O)N3CCN(CCc4ccccc4)CC3)cc12 [Compound 4018, (1-(3-(dimethylamino)propyl)-2,3-dimethyl-1H-indol-5-yl)(4-phenethylpiperazin-1-yl)methanone] | > 30 | > 30 | > 30 | > 30 | 67.3 | > 30 | > 30
2 | CN(C)CCCn1ccc2cc(Nc3ccc(C(=O)Nc4ccccc4)cc3)ccc21 [Compound 4026, 4-((1-(3-(dimethylamino)propyl)-1H-indol-5-yl)amino)-N-phenylbenzamide] | 5 | 3.5 | 6.1 | 15.4 | 5.9 | 3.7 | 3.8
3 | CN(C)CCCn1ccc2cc(Cc3cccc(C(=O)Nc4ccc(F)cc4)c3)ccc21 [Compound 4045, 3-((1-(3-(dimethylamino)propyl)-1H-indol-5-yl)methyl)-N-(4-fluorophenyl)benzamide] | 5.5 | 2.6 | 5.7 | 5.2 | 3.7 | 3.8 | 3.7
4 | COc1ccc(NC(=O)c2cccc(Cc3ccc4c(ccn4CCCN(C)C)c3)c2)cc1 [Compound 4046, 3-((1-(3-(dimethylamino)propyl)-1H-indol-5-yl)methyl)-N-(4-methoxyphenyl)benzamide] | 2.6 | 1.9 | 1.1 | 3.2 | 1.9 | 3.2 | 1.7
5 | CN(C)CCCn1ccc2cc(Cc3cccc(C(=O)Nc4ccc5c(c4)OCO5)c3)ccc21 [Compound 4047, N-(benzo[d][1,3]dioxol-5-yl)-3-((1-(3-(dimethylamino)propyl)-1H-indol-5-yl)methyl)benzamide] | 3.4 | 3 | 3.1 | 3 | 2.5 | 3.1 | 3
6 | CN(C)CCCn1ccc2cc(Cc3cccc(C(=O)Nc4cccc(F)c4)c3)ccc21 [Compound 4048, 3-((1-(3-(dimethylamino)propyl)-1H-indol-5-yl)methyl)-N-(3-fluorophenyl)benzamide] | 3.3 | 3.2 | 3.8 | 6.9 | 3.1 | 3.9 | 3
7 | COc1cccc(NC(=O)c2cccc(Cc3ccc4c(ccn4CCCN(C)C)c3)c2)c1 [Compound 4049, 3-((1-(3-(dimethylamino)propyl)-1H-indol-5-yl)methyl)-N-(3-methoxyphenyl)benzamide] | 3.3 | 3.4 | 3.4 | 3.2 | 3.1 | 3.3 | 3
8 | Cc1c(C)n(CCCN(C)C)c2ccc(Cc3cccc(C(=O)Nc4ccc(F)cc4)c3)cc12 [Compound 4050] | 4.3 | 3.7 | 4.2 | 4.2 | 2.6 | 4 | 3.1
9 | COc1ccc(NC(=O)c2cccc(Cc3ccc4c(c3)c(C)c(C)n4CCCN(C)C)c2)cc1 [Compound 4051] | 4.9 | 4.5 | 17.3 | 16.1 | 3.4 | 4.3 | 4.1
10 | Cc1c(C)n(CCCN(C)C)c2ccc(Cc3cccc(C(=O)Nc4ccc5c(c4)OCO5)c3)cc12 [Compound 4052, N-(benzo[d][1,3]dioxol-5-yl)-3-((1-(3-(dimethylamino)propyl)-2,3-dimethyl-1H-indol-5-yl)methyl)benzamide] | 13.8 | 30 | 11.1 | 27.1 | 6.2 | 31.9 | 8
11 | Cc1c(C)n(CCCN(C)C)c2ccc(Cc3cccc(C(=O)Nc4cccc(F)c4)c3)cc12 [Compound 4053] | 4.3 | 2.5 | 3.7 | 4.6 | 2.5 | 3.8 | 2
12 | COc1cccc(NC(=O)c2cccc(Cc3ccc4c(c3)c(C)c(C)n4CCCN(C)C)c2)c1 [Compound 4054] | 4.5 | 4.6 | 3.9 | 5.1 | 4.1 | 4.5 | 3.9
13 | Cc1c(C)n(CCCN(C)C)c2ccc(Cc3cccc(C(=O)Nc4ccccc4)c3)cc12 [Compound 4055] | 4.5 | 4.7 | 7.9 | 6.8 | 5.1 | 4.6 | 4.7
14 | CN(C)CCCn1ccc2cc(Oc3cccc(C(=O)Nc4ccc(F)cc4)c3)ccc21 [Compound 4056, 3-((1-(3-(dimethylamino)propyl)-1H-indol-5-yl)oxy)-N-(4-fluorophenyl)benzamide] | 4.3 | 3 | 7 | 4.7 | 3.4 | 3.4 | 4

Further lines, results first:

Row | IC50 [1] [µM] | IC50 [2] [µM] | IC50 [3] [µM] | IC50 [4] [µM] | IC50 (SK-Mel-28 melanoma cells) [µM] | IC50 [5] [µM] | IC50 [6] [µM] | SMILES
15 | 6.4 | 3 | 8.7 | 10.3 | 2.7 | 4.9 | 4.4 | COc1ccc(NC(=O)c2cccc(Oc3ccc4c(ccn4CCCN(C)C)c3)c2)cc1 [Compound 4057, 3-((1-(3-(dimethylamino)propyl)-1H-indol-5-yl)oxy)-N-(4-methoxyphenyl)benzamide]
16 | 4.7 | 3.8 | 7.2 | 9.7 | 2.7 | 3.4 | 4.7 | CN(C)CCCn1ccc2cc(Oc3cccc(C(=O)Nc4ccc5c(c4)OCO5)c3)ccc21 [Compound 4058, N-(benzo[d][1,3]dioxol-5-yl)-3-((1-(3-(dimethylamino)propyl)-1H-indol-5-yl)oxy)benzamide]
17 | > 30 | 13.2 | > 30 | > 30 | 15.5 | 11.3 | 13.4 | CN(C)CCCn1ccc2cc(Oc3cccc(C(=O)Nc4cccc(F)c4)c3)ccc21 [Compound 4059, 3-((1-(3-(dimethylamino)propyl)-1H-indol-5-yl)oxy)-N-(3-fluorophenyl)benzamide]
18 | 4 | 2.8 | 5 | 4 | 2.8 | 3.6 | 4.2 | COc1cccc(NC(=O)c2cccc(Oc3ccc4c(ccn4CCCN(C)C)c3)c2)c1 [Compound 4060]
19 | 3 | 3.2 | 2.2 | 3.7 | 2.5 | 2.3 | 3 | Cc1c(C)n(CCCN(C)C)c2ccc(Oc3cccc(C(=O)Nc4ccc(F)cc4)c3)cc12 [Compound 4061]
20 | 4.4 | 3.7 | 9 | 6 | 4.3 | 4.8 | 2.3 | COc1ccc(NC(=O)c2cccc(Oc3ccc4c(c3)c(C)c(C)n4CCCN(C)C)c2)cc1 [Compound 4062]

From US20170166555A1, “FUNCTIONALISED AND SUBSTITUTED INDOLES AS ANTI-CANCER AGENTS” (Novogen Limited, priority 2013, published 2017)
